# Results: a flash point compilation (Sun et al. 2020)
row,flash point,Compound
1,73.00 °C,CCO[Si](C)(C)CCCN [3-AMINOPROPYLDIMETHYLETHOXYSILANE]
2,109.00 °C,CCO[Si](CCCCN)(OCC)OCC [4-AMINOBUTYLTRIETHOXYSILANE]
3,114.00 °C,CCO[Si](CCCCCCS(=O)(=O)N=[N+]=[N-])(OCC)OCC [6-AZIDOSULFONYLHEXYLTRIETHOXYSILANE]
4,26.00 °C,C=CC(=O)O[Si](C)(C)C [ACRYLOXYTRIMETHYLSILANE]
5,62.00 °C,C=CC[Si](C)(C)N(C(C)C)C(C)C [ALLYLDIMETHYL(DIISOPROPYLAMINO)SILANE]
6,-20.00 °C,C=CC[SiH](C)C [ALLYLDIMETHYLSILANE]
7,67.00 °C,C=CC[Si](O[Si](C)(C)C)(O[Si](C)(C)C)O[Si](C)(C)C [ALLYLTRIS(TRIMETHYLSILOXY)SILANE]
8,9.00 °C,C[Si](C)(C)CN [AMINOMETHYLTRIMETHYLSILANE]
9,65.00 °C,C[SiH](C)Cc1ccccc1 [BENZYLDIMETHYLSILANE]
10,90.00 °C,CO[Si](C)(CCCNCCN)OC [N-(2-AMINOETHYL)-3-AMINOPROPYLMETHYLDIMETHOXYSILANE]
11,116.00 °C,C[Si](C)(C)CNCc1ccccc1 [N-BENZYLAMINOMETHYLTRIMETHYLSILANE]
12,180.00 °C,CO[Si](OC)(OC)c1ccc(N)cc1 [p-AMINOPHENYLTRIMETHOXYSILANE]

row,Compound,flash point
1,CC(=O)OCCC[Si](C)(Cl)Cl [3-ACETOXYPROPYLMETHYLDICHLOROSILANE],85.00 °C
2,CO[Si](CCCOC(C)=O)(OC)OC [3-ACETOXYPROPYLTRIMETHOXYSILANE],93.00 °C
3,CC(=O)OCC[Si](Cl)(Cl)Cl [ACETOXYETHYLTRICHLOROSILANE],82.00 °C
4,CC(=O)OC[Si](C)(C)C [ACETOXYMETHYLTRIMETHYLSILANE],20.00 °C

# Remark: another data set of the same source
row,flash point,Compound
1,55.00 °C,C=C[CH2][Ge]([Cl])([Cl])[Cl] [ALLYLTRICHLOROGERMANE]
2,48.00 °C,C=C[CH2][Ge]([CH2]C)([CH2]C)[CH2]C [ALLYLTRIETHYLGERMANE]
3,33.00 °C,[CH3][Ge]([CH3])([CH3])[CH](Cl)Cl [DICHLOROMETHYLTRIMETHYLGERMANE]
4,52.00 °C,C[CH2][Ge]([Cl])([Cl])[CH2]C [DIETHYLDICHLOROGERMANE]
5,-10.00 °C,C[N](C)[Ge]([CH3])([CH3])[CH3] [DIMETHYLAMINOTRIMETHYLGERMANE]
6,40.00 °C,CC[O][Ge]([CH3])([O]CC)[O]CC [METHYLTRIETHOXYGERMANE]
7,90.00 °C,CCC[CH2][Ge]([CH2]CCC)([CH2]CCC)[CH2]CCC [TETRA-n-BUTYLGERMANE]
8,70.00 °C,C=C[CH2][Ge]([CH2]C=C)([CH2]C=C)[CH2]C=C [TETRAALLYLGERMANE]
9,62.00 °C,CC[O][Ge]([O]CC)([O]CC)[O]CC [TETRAETHOXYGERMANE]
10,68.00 °C,CC(C)[O][Ge]([O]C(C)C)([O]C(C)C)[O]C(C)C [TETRAISOPROPOXYGERMANE]
11,-19.00 °C,[CH3][Ge]([CH3])([CH3])[CH3] [TETRAMETHYLGERMANE]
12,94.00 °C,CCC[CH2][Ge]([Cl])([CH2]CCC)[CH2]CCC [TRI-n-BUTYLCHLOROGERMANE]
13,78.00 °C,CCC[CH2][GeH]([CH2]CCC)[CH2]CCC [TRI-n-BUTYLGERMANE]
14,12.00 °C,[Cl][GeH]([Cl])[Cl] [TRICHLOROGERMANE]
15,38.00 °C,C[CH2][Ge]([Cl])([CH2]C)[CH2]C [TRIETHYLCHLOROGERMANE]
16,5.00 °C,C[CH2][GeH]([CH2]C)[CH2]C [TRIETHYLGERMANE]
17,66.00 °C,C[CH](C)[Ge]([Cl])([CH](C)C)[CH](C)C [TRIISOPROPYLCHLOROGERMANE]
18,1.00 °C,[CH3][Ge]([CH3])([CH3])[Cl] [TRIMETHYLCHLOROGERMANE]
19,82.00 °C,CCC[CH2][Ge]([Cl])([Cl])[Cl] [n-BUTYLTRICHLOROGERMANE]

# Remark: another data set of the same source
row,Compound,flash point
1,CCCC[O][Sn]([CH2]CCC)([CH2]CCC)[O]CCCC [DI-n-BUTYLDI-n-BUTOXYTIN],116.00 °C
2,CCC[CH2][Sn]([CH2]CCC)([O]C(C)=O)[O]C(C)=O [DI-n-BUTYLDIACETOXYTIN],143.00 °C
3,CCC[CH2][Sn]([CH2]CCC)([O]C)[O]C [DI-n-BUTYLDIMETHOXYTIN],110.00 °C
4,C[C](C)(C)[Sn]([Cl])([Cl])[C](C)(C)C [DI-t-BUTYLDICHLOROTIN],113.00 °C
5,C=C[CH2][Sn]([CH2]C=C)([CH2]CCC)[CH2]CCC [DIALLYLDI-n-BUTYLTIN],101.00 °C
6,C[N](C)[Sn]([CH3])([CH3])[CH3] [DIMETHYLAMINOTRIMETHYLTIN],1.00 °C
7,CCCCCCCCCCC[CH2][Sn]([CH2]CCCCCCC)([CH2]CCCCCCC)[CH2]CCCCCCCCCCC [DIOCTYLDILAURYLTIN],198.00 °C
8,C#[C][Sn]([CH2]CCC)([CH2]CCC)[CH2]CCC [ETHYNYLTRI-n-BUTYLTIN],73.00 °C
9,CCC[CH2][Sn]([CH2]CCC)([CH2]CCC)[c]1ccccc1 [PHENYLTRI-n-BUTYLTIN],107.00 °C
10,CCC[CH2][Sn]([CH2]CCC)([CH2]CCC)[CH2]CCC [TETRA-n-BUTYLTIN],107.00 °C
11,CCCCCCC[CH2][Sn]([CH2]CCCCCCC)([CH2]CCCCCCC)[CH2]CCCCCCC [TETRA-n-OCTYLTIN],94.00 °C
12,[CH3][Sn]([CH3])([CH3])[CH3] [TETRAMETHYLTIN],-12.00 °C
13,c1cc[c]([Sn]([c]2ccccc2)([c]2ccccc2)[c]2ccccc2)cc1 [TETRAPHENYLTIN],231.00 °C
14,CCC[CH2][Sn]([Cl])([CH2]CCC)[CH2]CCC [TRI-n-BUTYLCHLOROTIN],120.00 °C
15,CCC[CH2][Sn]([CH2]CCC)([CH2]CCC)[O]CC [TRI-n-BUTYLETHOXYTIN],104.00 °C
16,CCC[CH2][Sn]([I])([CH2]CCC)[CH2]CCC [TRI-n-BUTYLIODOTIN],113.00 °C
17,CCC[CH2][SnH]([CH2]CCC)[CH2]CCC [TRI-n-BUTYLTIN HYDRIDE],40.00 °C
18,C1CC[CH]([SnH]([CH]2CCCCC2)[CH]2CCCCC2)CC1 [TRICYCLOHEXYLTIN HYDRIDE],105.00 °C
19,[CH3][Sn]([CH3])([CH3])[Cl] [TRIMETHYLCHLOROTIN],97.00 °C
20,CCC[CH2][Sn]([CH2]CCC)([CH2]CCC)[C](C)(C)C [t-BUTYLTRI n-BUTYLTIN],102.00 °C

# Remark: another data set of the same source
row,Compound,flash point
1,CC[N-]C.CC[N-]C.CC[N-]C.CC[N-]C.[Zr+4] [ZIRCONIUM TETRAKIS(ETHYLMETHYLAMIDE)],10.00 °C
2,CC(C)(C)[O-].CC(C)(C)[O-].CC(C)(C)[O-].CC(C)(C)[O-].[Zr+4] [ZIRCONIUM t-BUTOXIDE],85.00 °C

# Remark: another data set of the same source
row,flash point,Compound
1,96 °C,CO[Si](CCCNCCN)(OC)OC [Aminoethylaminopropyltrimethoxysilane]
2,42 °C,C[Si](C)(C)N=C=N[Si](C)(C)C [Bis(trimethylsilyl)carbodiimide]
3,25 °C,CN(C(=O)C(F)(F)F)[Si](C)(C)C [N-Methyl-N-trimethylsilyltrifluoroacetamide]
4,26 °C,CC[Si](CC)(CC)CC [Tetraethylsilane]
5,42 °C,C[Si](C)(C)OB(O[Si](C)(C)C)O[Si](C)(C)C [Tris(trimethylsiloxy)boron]
6,12 °C,C=C[Si](C)(C)O[Si](C)(C)C [Vinylpentamethyldisiloxane]

# Remark: another data set of the same source
row,flash point,Compound
1,32.00 °C,CC[Si](CC)(CC)CC [Tetraethylsilane]
